What all share (assay type): binding
The target of one test is T1, human PLK1-PBD protein (Homo sapiens, UniProt P53350).
T1 construct: a C-terminal polo-box domain (PBD)
As to the kind of experiment: Competitive fluorescence polarization (FP) assay, PLK1-PBD inhibition. Here is the method: (§1) To test the binding ability of 9 peptides to the PLK1-PBD, a competitive fluorescence polarization (FP) assay was performed (Table S1).
(§2) A total of 20 μL of 200 nM human PLK1-PBD protein in phosphate-buffered saline (PBS, pH 7.4) was mixed with 20 μL of tested peptides at various concentrations in each well of a 384-well black bottom plate (Corning 3575, Thermo Scientific, Massachusetts, USA). Then, 20 μL of 30 nM probe was added to each well. The plate was shaken at room temperature for 40 min. The polarization values in millipolarization units (mP) were measured at excitation/emission wave lengths of 485/535 nm using a SpectraMax Paradigm Multi-Mode Detection Platform (Molecular-Devices, Tokyo, Japan). The percentage inhibition of the tested peptides at each concentration was defined as […] 1 − (Pobs − Pmin)/(Pmax − Pmin). Pmax is the polarization of the wells containing PLK1-PBD and the probe, Pmin is the polarization of the free probe, and the Pobs is the polarization for the wells containing the peptides with a series of concentrations. According to a previously reported method, FITC-GPMQSpTPLNG-OH was used as the fluorescein-labeled peptide, which was dissolved in dimethyl sulfoxide (DMSO) and the final optimized concentration was set at 20 nM. Phosphopeptides used for competition binding assays were dissolved in assay buffer. The buffer is made up of 50 mM NaCl, 10 mM Tris (pH 8.0), 1 mM EDTA and 0.1% Nonidet P-40. We further performed the sensitivity by synthesizing two fluorescent probes, FITC-GPMQTSpTPKNG-OH for PLK2-PBD and FITC-GPLATSpTPKNG-OH for PLK3-PBD, respectively. All experiments were performed in triplicate and the data were analyzed using GraphPad Prism 6.0 software (GraphPad Software, San Diego, CA, USA).
(In fluorescence polarisation assays a small probe gives low polarisation when free and higher when bound to something large.)

For the next test, the target named is T2, PLK2-PBD (Homo sapiens, UniProt Q9NYY3).
T2 sequence (Q9NYY3 355-685 limits assumed): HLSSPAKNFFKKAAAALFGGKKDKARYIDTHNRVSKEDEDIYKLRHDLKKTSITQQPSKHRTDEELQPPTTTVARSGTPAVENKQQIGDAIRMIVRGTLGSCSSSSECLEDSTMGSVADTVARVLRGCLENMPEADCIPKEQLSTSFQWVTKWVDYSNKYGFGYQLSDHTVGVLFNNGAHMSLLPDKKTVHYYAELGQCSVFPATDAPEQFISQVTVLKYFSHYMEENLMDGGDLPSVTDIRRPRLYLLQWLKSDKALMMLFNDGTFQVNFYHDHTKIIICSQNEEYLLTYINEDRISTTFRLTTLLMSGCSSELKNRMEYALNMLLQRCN
The test is described as follows: Competitive fluorescence polarization (FP) assay, selectivity vs PLK2-PBD. As for the experimental part:
as §1
as §2, with “According to a previously reported method, FITC-GPMQSpTPLNG-OH was used as the fluorescein-labeled peptide, which was dissolved in dimethyl sulfoxide (DMSO) and the final optimized concentration was set at 20 nM. Phosphopeptides used for competition binding assays were dissolved in assay buffer. The buffer is made up of 50 mM NaCl, 10 mM Tris (pH 8.0), 1 mM EDTA and 0.1% Nonidet P-40. We further performed the sensitivity by synthesizing two fluorescent probes, FITC-GPMQTSpTPKNG-OH for PLK2-PBD and FITC-GPLATSpTPKNG-OH for PLK3-PBD, respectively.” left out

A further test concerns the target T3, PLK3-PBD (Homo sapiens, UniProt Q9H4B4).
T3 sequence (Q9H4B4 335-646 limits assumed): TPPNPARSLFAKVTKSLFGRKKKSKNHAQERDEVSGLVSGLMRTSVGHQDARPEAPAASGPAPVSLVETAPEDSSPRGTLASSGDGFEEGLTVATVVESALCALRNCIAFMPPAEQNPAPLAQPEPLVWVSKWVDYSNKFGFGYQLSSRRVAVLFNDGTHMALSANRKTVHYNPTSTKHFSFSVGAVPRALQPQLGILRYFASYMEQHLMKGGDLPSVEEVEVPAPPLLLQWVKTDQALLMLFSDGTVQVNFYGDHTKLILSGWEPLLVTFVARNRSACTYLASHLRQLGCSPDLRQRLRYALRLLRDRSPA
The test is described as follows: Competitive fluorescence polarization (FP) assay, selectivity vs PLK3-PBD. Here is the method: as §1
as §2, with “According to a previously reported method, FITC-GPMQSpTPLNG-OH was used as the fluorescein-labeled peptide, which was dissolved in dimethyl sulfoxide (DMSO) and the final optimized concentration was set at 20 nM. Phosphopeptides used for competition binding assays were dissolved in assay buffer. The buffer is made up of 50 mM NaCl, 10 mM Tris (pH 8.0), 1 mM EDTA and 0.1% Nonidet P-40. We further performed the sensitivity by synthesizing two fluorescent probes, FITC-GPMQTSpTPKNG-OH for PLK2-PBD and FITC-GPLATSpTPKNG-OH for PLK3-PBD, respectively.” left out

The mark [1] stands for this setting: probe FITC-GPMQSpTPLNG-OH, room temperature 40 min, performed in triplicate, read-out: IC50.
The mark [2] stands for this setting: at 1 μM inhibitor concentration.

The structures appear in SMILES notation. Like-named read-outs stand apart in the source and are kept apart here. Non-standard residues stand in square brackets, D forms with d. Residues, ends and D or L forms follow the SMILES beside them. Phe(3,4-Cl2) = N[C@@H](Cc1ccc(Cl)c(Cl)c1)C(=O)O; pT = C[C@@H](OP(=O)(O)O)[C@H](N)C(=O)O Bounds are passed on as bounds.

T1 sequence (P53350 326-603 limits assumed): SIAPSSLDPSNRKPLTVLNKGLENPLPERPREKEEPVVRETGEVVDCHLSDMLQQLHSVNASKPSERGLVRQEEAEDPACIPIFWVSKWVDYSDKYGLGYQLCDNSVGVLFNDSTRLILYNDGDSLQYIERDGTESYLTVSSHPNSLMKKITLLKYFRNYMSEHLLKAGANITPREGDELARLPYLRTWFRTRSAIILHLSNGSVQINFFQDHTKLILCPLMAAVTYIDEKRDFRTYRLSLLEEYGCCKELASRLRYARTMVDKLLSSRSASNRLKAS

For `CC[C@H](C)[C@H](NC(=O)[C@H](C)NC(=O)[C@@H](NC(=O)[C@H](CO)NC(=O)[C@H](Cc1c[nH]cn1)NC(=O)[C@H](CC(C)C)NC(=O)[C@@H]1CCCN1C(=O)[C@@H]1CCCN1C(=O)[C@H](CCC(=O)O)NC(=O)[C@@H](N)Cc1ccc(O)cc1)[C@@H](C)OP(=O)(O)O)C(=O)NCC(=O)O` [Peptide 1] (H-YEPPLHS[pT]AIG-OH), the IC50 – broadly, the midpoint of a concentration-inhibition curve – at human PLK1-PBD protein (setting [1]) was 320 ± 20 nM. For `CC[C@H](C)[C@H](NC(=O)[C@H](C)NC(=O)[C@@H](NC(=O)[C@H](CO)NC(=O)[C@H](Cc1c[nH]cn1)NC(=O)[C@H](CC(C)C)NC(=O)[C@@H]1CCCN1C(=O)[C@@H]1CCCN1C(=O)[C@H](CC(=O)O)NC(=O)[C@@H](N)Cc1c[nH]c2ccccc12)[C@@H](C)OP(=O)(O)O)C(=O)O` [Peptide 2] (H-WDPPLHS[pT]AI-OH), the 50% inhibitory concentration (IC50) on human PLK1-PBD protein (setting [1]) was 190 ± 10 nM. Same read-out and setting: with `CC[C@H](C)[C@H](NC(=O)[C@H](C)NC(=O)[C@@H](NC(=O)[C@H](CO)NC(=O)[C@H](Cc1c[nH]cn1)NC(=O)[C@H](CC(C)C)NC(=O)[C@@H]1CCCN1C(=O)[C@@H]1CCCN1C(=O)[C@H](CCC(=O)O)NC(=O)[C@@H](N)Cc1ccccc1)[C@@H](C)OP(=O)(O)O)C(=O)O` [Peptide 3] (H-FEPPLHS[pT]AI-OH) the figure was 290 ± 20 nM; with `CC(C)C[C@H](NC(=O)[C@@H]1CCCN1C(=O)[C@@H]1CCCN1C(=O)[C@H](CCC(=O)O)NC(=O)[C@@H](N)Cc1ccccc1)C(=O)N[C@@H](Cc1c[nH]cn1)C(=O)N[C@@H](CO)C(=O)N[C@H](C(=O)N[C@@H](C)C(=O)NCC(=O)O)[C@@H](C)OP(=O)(O)O` [Peptide 4] (H-FEPPLHS[pT]AG-OH), 160 ± 20 nM. As for `CC(C)C[C@H](NC(=O)[C@@H]1CCCN1C(=O)[C@@H]1CCCN1C(=O)[C@H](CC(N)=O)NC(=O)[C@@H](N)Cc1ccc(Cl)c(Cl)c1)C(=O)N[C@@H](Cc1c[nH]cn1)C(=O)N[C@@H](CO)C(=O)N[C@H](C(=O)N[C@@H](C)C(=O)O)[C@@H](C)OP(=O)(O)O` [Peptide 5] (H-[Phe(3,4-Cl2)]NPPLHS[pT]A-OH), the IC50 on human PLK1-PBD protein (triplicates, mean ± SD of three data sets, read-out: IC50 PLK1-PBD) is 70 nM; on PLK2-PBD (Table S2, probe FITC-GPMQTSpTPKNG-OH, triplicates) it was over 1000 nM; on PLK3-PBD (Table S2, probe FITC-GPLATSpTPKNG-OH, triplicates), over 1000 nM. The inhibition at 1 µM on PLK2-PBD (setting [2]) and on PLK3-PBD (setting [2]) was at most 10% in each case. With `CC(C)C[C@H](NC(=O)[C@@H]1CCCN1C(=O)[C@@H]1CCCN1C(=O)[C@H](C)NC(=O)[C@@H](N)Cc1c[nH]c2ccccc12)C(=O)N[C@@H](Cc1c[nH]cn1)C(=O)N[C@@H](CO)C(=O)N[C@H](C(=O)N[C@@H](C)C(=O)N[C@@H](CCCCN)C(=O)O)[C@@H](C)OP(=O)(O)O` [Peptide 6] (H-WAPPLHS[pT]AK-OH), at human PLK1-PBD protein (setting [1]), the concentration for half-maximal inhibition (IC50) came out at 350 ± 110 nM. As to `CC(C)C[C@H](NC(=O)[C@@H]1CCCN1C(=O)[C@@H]1CCCN1C(=O)[C@H](CCCCN)NC(=O)[C@@H](N)Cc1c[nH]c2ccccc12)C(=O)N[C@@H](Cc1c[nH]cn1)C(=O)N[C@@H](CO)C(=O)N[C@H](C(=O)N[C@@H](C)C(=O)NCC(=O)O)[C@@H](C)OP(=O)(O)O` [Peptide 7] (H-WKPPLHS[pT]AG-OH), the half-inhibitory concentration (IC50) at human PLK1-PBD protein (setting [1]) is 420 ± 200 nM. On the same count and under the same terms, as for `CC(C)C[C@H](NC(=O)[C@@H]1CCCN1C(=O)[C@@H]1CCCN1C(=O)[C@H](CCCCN)NC(=O)[C@@H](N)Cc1c[nH]cn1)C(=O)N[C@@H](Cc1c[nH]cn1)C(=O)N[C@@H](CO)C(=O)N[C@H](C(=O)N[C@@H](C)C(=O)O)[C@@H](C)OP(=O)(O)O` [Peptide 8] (H-HKPPLHS[pT]A-OH), the figure is 610 ± 320 nM; as for `CC(C)C[C@H](NC(=O)[C@@H]1CCCN1C(=O)[C@@H]1CCCN1C(=O)[C@H](CCC(N)=O)NC(=O)[C@@H](N)Cc1c[nH]cn1)C(=O)N[C@@H](Cc1c[nH]cn1)C(=O)N[C@@H](CO)C(=O)N[C@H](C(=O)N[C@@H](C)C(=O)O)[C@@H](C)OP(=O)(O)O` [Peptide 9] (H-HQPPLHS[pT]A-OH), 720 ± 240 nM; as for `CSCC[C@H](NC(=O)[C@@H]1CCCN1C(=O)CNC(=O)[C@H](C)NC(=O)[C@@H](N)CCSC)C(=O)N[C@@H](CCC(N)=O)C(=O)N[C@@H](CO)C(=O)N[C@H](C(=O)N1CCC[C@H]1C(=O)N[C@@H](CC(C)C)C(=O)N[C@@H](CC(N)=O)C(=O)NCC(=O)N[C@@H](C)C(=O)N[C@@H](CCCCN)C(=O)N[C@@H](CCCCN)C(=O)O)[C@@H](C)OP(=O)(O)O` [Polo b oxtide, reference compound] (H-MAGPMQS[pT]PLNGAKK-OH), 7920 ± 1030 nM.

Source of the values: publication PMC6982974, “Structure-Based Virtual Screening and Biological Evaluation of Peptide Inhibitors for Polo-Box Domain” (Molecules, 2019).
